Assay results reported in patent US20110182916A1, “Use of Agonists of Integrin Alpha 5 for Inducing the Osteogenic Differentiation of Mesenchymal Stem Cells” (priority 2008, published 2011).
Where no end group is shown, it is not given here.

What was measured:
[1] = test system: LV-ITGA5-infected hMSCs; assay type: cell-based, human
Procedure: To this goal, proteins collected from hMSCs infected with LV-ITGA5 were analysed by western blot analysis.
Legend: Osteoblast differentiation by ITGA5 involves ERK1/2 signalling.

[2] = test system: ITGA5 in hMSCs; assay: ITGA5 protein level by Western blot; assay type: cell-based, human; settings: dexamethasone 10^-7 M
Procedure: For Western blot analysis, cells lysates were prepared as previously described (FROMIGUE et al. Cell Death Differ. 13, 1845-56, 2006). Briefly, proteins (30 μg) were resolved on 4-12% SDS-PAGE and electrotransfered onto […] membranes (Millipore Corporation, Bedford, USA). Filters were incubated at RT for 2 h in 50 mM Tris/HCl (pH 7.4), 150 mM NaCl, 0.1% (v/v) Tween-20, 0.5% (w/v) bovine serum albumin (TBST/BSA), then overnight at 4° C. on a shaker with specific primary antibodies diluted at 1/1000 in TBST/BSA: monoclonal antibody against the housekeeping gene GAPDH (Abeam Cambridge, UK), and rabbit polyclonal antibody directed against ITGA5 was Santa Cruz Biotechnology (Santa Cruz, Calif., USA). Membranes were washed twice with TBST and incubated for 2 hours with appropriate HRP-conjugated secondary antibody (1/20,000 in TBST/BSA). After final washes, the signals were visualized with enhanced chemiluminescence western blotting detection reagent (ECL, Amersham Biosciences, Piscataway, N.J., USA) and autoradiographic film (X-OMAT-AR, Eastman Kodak Company, Rochester, N.Y., USA). Densitometric analysis using ImageQuant software was performed following digital scanning (Agfa).

[3] = test system: ITGA5 in primary hMSCs; assay: ITGA5 mRNA expression by quantitative RT-PCR; assay type: cell-based, human; settings: dexamethasone 10^-7 M, day 1 and 3, primary hMSCs
[4] = test system: hMSCs; assay: Osteoblast marker mRNA (Runx2, ALP, Col1A1) by quantitative RT-PCR; assay type: cell-based; settings: CRRETAWAC 100 μg/ml, 24 h, human MSCs
Procedure: The expression of mRNA markers of the osteoblast lineage (Runx2, ALP, type 1 collagen) was evaluated by quantitative RT-PCR. Total RNAs were isolated using Trizol reagent (Laboratoires Eurobio, France) according to the manufacturer's instructions. Three μg of total RNA from each sample were reverse transcribed using MMLV reverse transcriptase and oligodT primers, at 37° C. for 90 min. The relative mRNA levels were evaluated by quantitative PCR using LightCycler Instrument (Roche Applied Science, Indianapolis Ind., USA) and SYBR Green PCR kit (ABGen, Courtabceuf, France). Triplicate reactions were carried out for each sample. Signal was normalized to 18S as internal control.

[5] = test system: clonal F/STRO1+A cells; assay: ALP activity by staining in clonal cells; assay type: cell-based, human; settings: coating with 100 μg/ml CRRETAWAC
Excerpt: F/STRO1^+A cells were derived from human fetal bone marrow stroma, selected for Stro1 antigen expression, immortalized using the large T SV40 and subsequently subcloned (OYAJOBI et al., J Bone Miner Res, 14, 351-61, 1999). This clonal human bone marrow stromal cell line express mRNA markers or protein of the osteoblast lineage (Runx2, OC, ALP, type 1 collagen), of the chondrocyte lineage (aggrecan, types 2, 9 and 10 collagen), and of the adipocyte lineage (PPARgamma2, C/EBPalpha, aP2, G3PDH, LPL, leptin) under basal conditions (AHDJOUDJ et al., J Cell Biochem, 81, 23-38, 2001).
The activity of alkaline phosphatase, an early marker of osteoblast differentiation, was determined by a colorimetric assay as previously described (FROMIGUE et al., J Cell Biochem, 104, 620-8, 2008). ALP staining was performed using Sigma FAST kit according to the manufacturer's recommendations (Sigma). Cells were fixed in 75% ethanol, rinsed in PBS and incubated with the substrate buffer at 37° C.
Legend: The synthetic cyclic peptide CRRETAWAC promotes osteoblast marker genes expression in hMSCs. A) Human MSCs were treated with CRRETAWAC at the dose of 100 μg/ml for 24 h, RNAs were collected and osteoblast markers were determined by qRT-PCR analysis. Results, after correction to 18S content, are expressed as mean±SD of treated over control ratio. […] Infection with LV-ITGA5 is shown for comparison.

N#CC(=C(/N)Sc1ccccc1N)/C(C#N)=C(\N)Sc1ccccc1N [U0126]
increased expression of ALP induced by ITGA5 overexpression [1]: blunted | increased expression of Col1A1 induced by ITGA5 overexpression [1]: blunted | increased expression of Runx2 induced by ITGA5 overexpression [1]: blunted

C[C@@H]1C[C@H]2[C@@H]3CCC4=CC(=O)C=C[C@]4(C)[C@@]3(F)[C@@H](O)C[C@]2(C)[C@@]1(O)C(=O)CO [dexamethasone]
increase of ITGA5 protein levels, treated over control [2]: about 1.5 fold | increase of ITGA5 expression (mRNA), treated over control [3]: 2-3 fold

CRRETAWAC (also: cyclic)
expression of osteoblast markers (mRNA) [4]: greatly increased | ALP activity (staining) [5]: increased
